target: GSK-3β (Homo sapiens, UniProt P49841); assay: Assay for GSK-3β inhibiting activity (32P-ATP, phospho-CREB peptide substrate, filter paper, CPM); type: biochemical; details: GSK-3β inhibiting activity; 100 nM GSK-3β protein, 100 μM phospho-CREB peptide, 100 μM ATP, 30° C. for 1 hour; read-out: IC50
Method: Assay for GSK-3β inhibiting activity
First, PCR (polymerase chain reaction) was carried out using human DNA as a template as well as primers which were designed to correspond to the 3′- and 5′ ends of the polynucleotide coding human GSK-3β gene (Genbank Accession No.: L33801). The BamH1/XhoI fragment of the amplified PCR product thus obtained was inserted into the pGex vector between the BamH1 and XhoI sites, and the vector obtained was transformed into E. coli BL21(DE3). The transformed cells thus obtained was incubated in […] (1% Bacto-trypton, 0.5% yeast extract, 1% NaCl) containing ampicillin ([…]) until the optical density at 600 nm reached about 0.5. The cultured mixture was cooled to 18° C. and isopropyl β-D-thiogalacto-pyranoside (IPTG) was added thereto to a final concentration of 0.5 mM. After 16 hours, the resultant was centrifuged at 10,000×g for 10 min, the collected cells were suspended in a buffer solution (30 mM Tris-HCl (pH 7.5), 100 mM NaCl, 5% glycerol, 2 mM DTT) and the cells were disrupted using Sonic Dismembrator (Fisher, U.S.A.) in a ice bath. The resulting solution was centrifuged at 16,000 rpm for 30 minutes. […] The purified GSK-3β protein was diluted in a buffer solution (20 mM HEPES (pH 7.5), 5% glycerol, 2 mM DTT) to a final concentration of 50 mM NaCl and the resulting solution was subjected to mono S column chromatography (eluent: linear gradient from 0M to 1M NaCl buffer) using mono S column (Pharmacia Biotech, U.S.A.) equilibrated in the same buffer solution to obtain GSK-3β protein.
The reaction was stopped by adding 5 μl of 5% phosphoric acid to 25 μl of the resulting solution. The resulting mixture was centrifuged at 15,000 rpm for 10 min, 20 μl of the supernatant was added dropwise to Whatman p81 filter paper, and then, the resulting filter paper was washed with 0.5% phosphate buffer for 10 min. The filter paper was further washed 3 times and the enzymatic activity was determined by examining the extent of phospho-CREB peptide phosphorylation which is represented by the unit of count per minute (CPM), measured with a β-counter (Packard, USA).
The GSK-3β inhibiting activity was then calculated in accordance with the following equation:
[formula] wherein the blank represents a value obtained without the use of the enzyme and the compound of the present invention, and the control, in the absence of the compound of the present invention.

Sequence of GSK-3β (P49841 whole entry): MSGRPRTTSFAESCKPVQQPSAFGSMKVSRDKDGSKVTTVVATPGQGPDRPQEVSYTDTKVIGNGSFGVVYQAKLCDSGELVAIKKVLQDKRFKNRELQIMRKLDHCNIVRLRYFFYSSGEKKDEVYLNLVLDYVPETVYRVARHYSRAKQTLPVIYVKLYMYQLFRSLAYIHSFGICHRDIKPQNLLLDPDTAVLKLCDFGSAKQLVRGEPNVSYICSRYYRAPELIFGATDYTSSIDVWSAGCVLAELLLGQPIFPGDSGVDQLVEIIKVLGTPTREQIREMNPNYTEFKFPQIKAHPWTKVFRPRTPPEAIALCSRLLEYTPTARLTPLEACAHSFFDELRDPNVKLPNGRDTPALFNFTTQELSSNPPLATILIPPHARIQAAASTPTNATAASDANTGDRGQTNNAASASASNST

SMILES	IC50
O=C(Nc1ccc(CCN2C(=O)c3ccccc3C2=O)cc1)c1ccc(O)c2[nH]c(-c3ccccc3)nc12 [Compound 11]	> 5 µM
NCCc1ccc(NC(=O)c2ccc(O)c3[nH]c(-c4ccc(Cl)cc4Cl)nc23)cc1 [Compound 24]	> 5 µM
O=C(Nc1ccc(CCO)cc1)c1ccc(O)c2[nH]c(-c3ccc(Cl)cc3Cl)nc12 [Compound 27]	> 1 µM
O=C(Nc1ccc(CCN2C(=O)c3ccccc3C2=O)cc1)c1ccc(O)c2[nH]c(-c3ccc(Cl)cc3Cl)nc12 [Compound 30]	> 1 µM
O=C(Nc1ccc(CCNS(=O)(=O)c2cccs2)cc1)c1ccc(O)c2[nH]c(-c3ccc(Cl)cc3Cl)nc12 [Compound 31]	> 1 µM
CS(=O)(=O)NCCc1ccc(NC(=O)c2ccc(O)c3[nH]c(-c4ccc(F)cc4)nc23)cc1 [Compound 33]	> 1 µM
Cc1ccc(S(=O)(=O)NCCc2ccc(NC(=O)c3ccc(O)c4[nH]c(-c5ccc(F)cc5)nc34)cc2)cc1 [Compound 34]	> 1 µM
O=C(Nc1ccc(N2CCOCC2)cc1)c1ccc(O)c2[nH]c(-c3ccc(F)cc3)nc12 [Compound 36]	> 1 µM
CS(=O)(=O)NCCc1ccc(NC(=O)c2ccc(O)c3[nH]c(-c4ccc(F)cc4F)nc23)cc1 [Compound 37]	> 1 µM
Cc1ccc(S(=O)(=O)NCCc2ccc(NC(=O)c3ccc(O)c4[nH]c(-c5ccc(F)cc5F)nc34)cc2)cc1 [Compound 38]	> 1 µM
CCS(=O)(=O)NCCc1ccc(NC(=O)c2ccc(O)c3[nH]c(-c4ccc(F)cc4F)nc23)cc1 [Compound 39]	> 1 µM
Cc1ccc(S(=O)(=O)NCCc2ccc(NC(=O)c3ccc(O)c4[nH]c(-c5ccc(F)cc5Cl)nc34)cc2)cc1 [Compound 40]	> 1 µM
CS(=O)(=O)NCCc1ccc(NC(=O)c2ccc(O)c3[nH]c(-c4ccc(F)cc4Cl)nc23)cc1 [Compound 41]	> 1 µM
CCS(=O)(=O)NCCc1ccc(NC(=O)c2ccc(O)c3[nH]c(-c4ccc(F)cc4Cl)nc23)cc1 [Compound 42]	> 1 µM
Cc1ccc(S(=O)(=O)NCCc2ccc(NC(=O)c3ccc(O)c4[nH]c(-c5ccc(F)c(Cl)c5)nc34)cc2)cc1 [Compound 43]	> 1 µM
CCS(=O)(=O)NCCc1ccc(NC(=O)c2ccc(O)c3[nH]c(-c4ccc(F)c(Cl)c4)nc23)cc1 [Compound 44]	> 1 µM
O=C(c1ccc(O)c2[nH]c(-c3ccc(Cl)cc3Cl)nc12)N1CCCCC1 [Compound 48]	> 5 µM
O=C(NCc1ccccc1)c1ccc(O)c2[nH]c(-c3ccc(Cl)cc3)nc12 [Compound 52]	> 1 µM
O=C(NCc1ccc([N+](=O)[O-])cc1)c1ccc(O)c2[nH]c(-c3ccc(Cl)cc3)nc12 [Compound 53]	> 1 µM
Nc1ccc(CNC(=O)c2ccc(O)c3[nH]c(-c4ccc(Cl)cc4)nc23)cc1 [Compound 54]	> 1 µM
O=C(NCc1ccccc1)c1ccc(O)c2[nH]c(-c3ccc(Cl)cc3Cl)nc12 [Compound 55]	> 1 µM
NCCNC(=O)c1ccc(O)c2[nH]c(-c3ccccc3)nc12 [Compound 61]	> 1 µM
COc1cc(CCNC(=O)c2ccc(O)c3[nH]c(-c4ccccc4)nc23)ccc1O [Compound 62]	> 1 µM
O=C(NCCN1CCOCC1)c1ccc(O)c2[nH]c(-c3ccccc3)nc12 [Compound 66]	> 1 µM
O=C(NCCNc1ccc([N+](=O)[O-])cn1)c1ccc(O)c2[nH]c(-c3ccccc3)nc12 [Compound 69]	> 1 µM
O=C(NCCc1ccccn1)c1ccc(O)c2[nH]c(-c3ccccc3)nc12 [Compound 70]	> 1 µM

Further lines, results first:

IC50	SMILES
> 1 µM	NC(=O)c1ccc(O)c2[nH]c(-c3ccccc3)nc12 [Compound 1, 7-hydroxy-2-phenyl-1H-benzoimidazole-4-carboxylic acid amide]
> 1 µM	Nc1ccc(NC(=O)c2ccc(O)c3[nH]c(-c4ccccc4)nc23)cc1 [Compound 4]
0.3 µM	O=C(NC1CCC(O)CC1)c1ccc(O)c2[nH]c(-c3ccccc3)nc12 (stereo not drawn) [Compound 5]
> 1 µM	O=C(Nc1ccc(CO)cc1)c1ccc(O)c2[nH]c(-c3ccccc3)nc12 [Compound 6]
> 1 µM	NCCc1ccc(NC(=O)c2ccc(O)c3[nH]c(-c4ccccc4)nc23)cc1 [Compound 8]
0.18 µM	Cc1ccc(S(=O)(=O)NCCc2ccc(NC(=O)c3ccc(O)c4[nH]c(-c5ccccc5)nc34)cc2)cc1 [Compound 9]
0.04 µM	CS(=O)(=O)NCCc1ccc(NC(=O)c2ccc(O)c3[nH]c(-c4ccccc4)nc23)cc1 [Compound 10]
0.2 µM	O=C(Nc1ccc(CCNS(=O)(=O)c2cccs2)cc1)c1ccc(O)c2[nH]c(-c3ccccc3)nc12 [Compound 12]
0.36 µM	CCS(=O)(=O)NCCc1ccc(NC(=O)c2ccc(O)c3[nH]c(-c4ccccc4)nc23)cc1 [Compound 13]
> 1 µM	O=C(Nc1ccccc1)c1ccc(O)c2[nH]c(-c3ccc(Cl)cc3)nc12 [Compound 14]
0.11 µM	O=C(NC1CCC(O)CC1)c1ccc(O)c2[nH]c(-c3ccc(Cl)cc3)nc12 (stereo not drawn) [Compound 15]
0.7 µM	Cc1ccc(S(=O)(=O)NCCc2ccc(NC(=O)c3ccc(O)c4[nH]c(-c5ccc(Cl)cc5)nc34)cc2)cc1 [Compound 16]
0.24 µM	CS(=O)(=O)NCCc1ccc(NC(=O)c2ccc(O)c3[nH]c(-c4ccc(Cl)cc4)nc23)cc1 [Compound 17]
> 1 µM	O=C(Nc1ccc(CCN2C(=O)c3ccccc3C2=O)cc1)c1ccc(O)c2[nH]c(-c3ccc(Cl)cc3)nc12 [Compound 18]
> 1 µM	O=C(Nc1ccc(CCNS(=O)(=O)c2cccs2)cc1)c1ccc(O)c2[nH]c(-c3ccc(Cl)cc3)nc12 [Compound 19]
4.1 µM	CCS(=O)(=O)NCCc1ccc(NC(=O)c2ccc(O)c3[nH]c(-c4ccc(Cl)cc4)nc23)cc1 [Compound 20]
> 1 µM	O=C(Nc1ccccc1)c1ccc(O)c2[nH]c(-c3ccc(Cl)cc3Cl)nc12 [Compound 22]
0.68 µM	O=C(NC1CCC(O)CC1)c1ccc(O)c2[nH]c(-c3ccc(Cl)cc3Cl)nc12 (stereo not drawn) [Compound 23]

IC50	SMILES
> 1 µM	Nc1ccc(NC(=O)c2ccc(O)c3[nH]c(-c4ccc(Cl)cc4Cl)nc23)cc1 [Compound 25]
> 1 µM	O=C(Nc1ccc(CO)cc1)c1ccc(O)c2[nH]c(-c3ccc(Cl)cc3Cl)nc12 [Compound 26]
0.74 µM	Cc1ccc(S(=O)(=O)NCCc2ccc(NC(=O)c3ccc(O)c4[nH]c(-c5ccc(Cl)cc5Cl)nc34)cc2)cc1 [Compound 28]
0.5 µM	CCS(=O)(=O)NCCc1ccc(NC(=O)c2ccc(O)c3[nH]c(-c4ccc(Cl)cc4Cl)nc23)cc1 [Compound 32]
0.007 µM	CCS(=O)(=O)NCCc1ccc(NC(=O)c2ccc(O)c3[nH]c(-c4ccc(F)cc4)nc23)cc1 [Compound 35]
0.02 µM	CS(=O)(=O)NCCc1ccc(NC(=O)c2ccc(O)c3[nH]c(-c4ccc(F)c(Cl)c4)nc23)cc1 [Compound 45]
0.6 µM	O=C(NCc1ccc([N+](=O)[O-])cc1)c1ccc(O)c2[nH]c(-c3ccccc3)nc12 [Compound 49]
0.6 µM	Nc1ccc(CNC(=O)c2ccc(O)c3[nH]c(-c4ccccc4)nc23)cc1 [Compound 50]
0.87 µM	O=C(NCc1ccccc1)c1ccc(O)c2nc(-c3ccccc3)[nH]c12 [Compound 51]
0.7 µM	O=C(NCc1ccc([N+](=O)[O-])cc1)c1ccc(O)c2[nH]c(-c3ccc(Cl)cc3Cl)nc12 [Compound 56]
0.58 µM	O=C(NCCc1ccccc1)c1ccc(O)c2nc(-c3ccccc3)[nH]c12 [Compound 57]
0.67 µM	O=C(NCCc1ccc(O)cc1)c1ccc(O)c2[nH]c(-c3ccccc3)nc12 [Compound 58]
0.16 µM	O=C(NCCc1ccc([N+](=O)[O-])cc1)c1ccc(O)c2[nH]c(-c3ccccc3)nc12 [Compound 59]
0.35 µM	Nc1ccc(CCNC(=O)c2ccc(O)c3nc(-c4ccccc4)[nH]c23)cc1 [Compound 60]
0.45 µM	COc1ccc(CCNC(=O)c2ccc(O)c3[nH]c(-c4ccccc4)nc23)cc1O [Compound 63]
0.03 µM	CS(=O)(=O)Nc1ccc(CCNC(=O)c2ccc(O)c3[nH]c(-c4ccccc4)nc23)cc1 [Compound 64]
0.06 µM	Cc1ccc(S(=O)(=O)Nc2ccc(CCNC(=O)c3ccc(O)c4[nH]c(-c5ccccc5)nc34)cc2)cc1 [Compound 65]
0.16 µM	O=C(NCCc1ccc(N2C(=O)c3ccccc3C2=O)cc1)c1ccc(O)c2[nH]c(-c3ccccc3)nc12 [Compound 67]

same assay, conditions: IC50 (μM)

SMILES	IC50
CS(=O)(=O)NCCc1ccc(NC(=O)c2ccc(O)c3[nH]c(-c4ccc(Cl)cc4Cl)nc23)cc1 [Compound 29]	0.08 µM

Reference: patent US7179832B2, “Glycogen synthase kinase 3β inhibitor, composition and process for the preparation thereof” (Crystalgenomics, Inc., priority 2003, dated 2007)
